Two compounds from US8569472B2, “Efficient cell culture system for hepatitis C virus genotype 6A” (priority 2007, dated 2013) can be followed below.

This test concerns JFH1-based recombinants of genotypes 1a, 1b, 2a, 2b, and 6a. Format: cell-based, hepatitis C virus. Conditions: 500 IU/mL interferon-α2b, 20 μM ribavirin or 50 μM amantadine; for decrease in supernatant HCV RNA titers / decrease in the number of infected cells: 72 hrs, Huh7.5 cultures infected with genotype 1a/1b, 2a/2b and 6a recombinants.

`NC12CC3CC(CC(C3)C1)C2` [amantadine]: the “antiviral effect of treatment (infected cells and supernatant HCV RNA titers)” value was “no apparent effect”; the “decrease in supernatant HCV RNA titers” value is listed as “did not decrease”; the “decrease in the number of infected cells” value was “did not decrease”.
For `NC(=O)c1ncn([C@@H]2O[C@H](CO)[C@@H](O)[C@H]2O)n1` [ribavirin], the “antiviral effect of treatment (infected cells and supernatant HCV RNA titers)” value is “no apparent effect”; the “decrease in supernatant HCV RNA titers” value is “did not decrease”; the “decrease in the number of infected cells” value is recorded as “did not decrease”.
